Laboratory results published in patent publication US20160326142A1, “PYRAZOLE CARBOXAMIDE COMPOUNDS, COMPOSITIONS AND METHODS OF USE” (Genentech, Inc., priority 2012, published 2016).

Target: T1, ITK (Homo sapiens, UniProt Q08881)
T1 construct: purchased Invitrogen PV3875
T1 sequence (Q08881 1-620): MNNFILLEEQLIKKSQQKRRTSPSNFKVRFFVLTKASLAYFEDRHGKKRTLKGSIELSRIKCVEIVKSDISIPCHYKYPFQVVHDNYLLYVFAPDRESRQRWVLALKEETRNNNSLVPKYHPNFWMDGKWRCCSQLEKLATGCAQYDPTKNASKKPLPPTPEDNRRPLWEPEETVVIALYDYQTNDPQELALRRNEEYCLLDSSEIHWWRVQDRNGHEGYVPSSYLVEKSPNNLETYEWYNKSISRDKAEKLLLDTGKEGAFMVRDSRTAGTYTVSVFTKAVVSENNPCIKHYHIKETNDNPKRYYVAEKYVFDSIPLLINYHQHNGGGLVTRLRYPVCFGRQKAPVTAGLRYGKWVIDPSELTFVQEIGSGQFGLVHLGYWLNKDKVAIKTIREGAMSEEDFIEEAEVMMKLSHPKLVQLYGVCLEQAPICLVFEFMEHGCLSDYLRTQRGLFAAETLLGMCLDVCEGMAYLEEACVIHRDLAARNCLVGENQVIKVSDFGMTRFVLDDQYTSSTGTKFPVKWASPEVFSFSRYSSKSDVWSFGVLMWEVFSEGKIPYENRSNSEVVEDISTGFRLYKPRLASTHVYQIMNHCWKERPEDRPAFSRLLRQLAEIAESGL
Test: ITK enzyme assay (Caliper or LCMS peptide phosphorylation)
Assay type: biochemical
Settings: purified ITK (Invitrogen PV3875), 20 μM ATP, Ki by Morrison's quadratic equation
Summary of the method: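 Ki values come from Morrison quadratic fits of activity versus inhibitor concentration, adjusted for ATP-competitive inhibition against ATP/Km,app. Substrate and phosphopeptide from purified ITK reactions were resolved either microfluidically (Caliper, EDTA stop) or by LC-MS MRM (TCA stop).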

Row | SMILES | Ki
1 | N#Cc1cccc(Cn2cc(NC(=O)c3n[nH]c4c3CCC4)cn2)c1 [Example 20, N-(1-(3-cyanobenzyl)-1H-pyrazol-4-yl)-1,4,5,6-tetrahydrocyclopenta[c]pyrazole-3-carboxamide] | 89 nM
2 | CC1(C)Cc2[nH]nc(C(=O)Nc3cnn(Cc4ccccc4)c3)c2C1 [Example 21, N-(1-benzyl-1H-pyrazol-4-yl)-5,5-dimethyl-1,4,5,6-tetrahydrocyclopenta[c]pyrazole-3-carb oxamide] | 7.4 nM
3 | O=C(Nc1cnn(Cc2ccccc2)c1)c1n[nH]c2c1C1CC(C2)C1 [Example 31, N-(1-benzyl-1H-pyrazol-4-yl)-4,5,6,7-tetrahydro-1H-4,6-methanoindazole-3-carboxamide] | 260 nM
4 | O=C(Nc1cnn(Cc2ccccc2)c1)c1n[nH]c2c1CC1CC2C1 [Example 32, N-(1-benzyl-1H-pyrazol-4-yl)-4,5,6,7-tetrahydro-1H-5,7-methanoindazole-3-carboxamide] | 38 nM
5 | CN(C)CCC(c1ccccc1)n1cc(NC(=O)c2n[nH]c3c2CCC2(CCCO2)C3)cn1 (stereo not shown) [Example 59, N-(1-(3-(dimethylamino)-1-phenylpropyl)-1H-pyrazol-4-yl)-1′,4,4′,5,5′,7′-hexahydro-3H-spiro[furan-2,6′-indazole]-3′-carboxamide] | 40 nM
6 | CC12Cc3[nH]nc(C(=O)Nc4cnn(C(CCS(C)(=O)=O)c5ccccc5)c4)c3CC1C2 (stereo not shown) [Example 69a, 5a-methyl-N-(1-(3-(methylsulfonyl)-1-phenylpropyl)-1H-pyrazol-4-yl)-1,4,4a,5,5a,6-hexahydrocyclopropa[f]indazole-3-carboxamide] | 2 nM
7 | CN(C)CCn1cc(NC(=O)c2n[nH]c3c2CCC(C)(C)C3)cn1 [Example 72, N-(1-(2-(dimethylamino)ethyl)-1H-pyrazol-4-yl)-6,6-dimethyl-4,5,6,7-tetrahydro-1H-indazole-3-carboxamide] | 78 nM
8 | CC1(C)CCc2c(C(=O)Nc3cnn(C(c4ccccc4)C4CN(CCF)C4)c3)n[nH]c2C1 (stereo not shown) [Example 75b, N-(1-((1-(2-fluoroethyl)azetidin-3-yl)(phenyl)methyl)-1H-pyrazol-4-yl)-6,6-dimethyl-4,5,6,7-tetrahydro-1H-indazole-3-carboxamide] | 0.3 nM
9 | CC1(C)CCc2c(C(=O)Nc3cnn(Cc4ccnc(N)c4)c3)n[nH]c2C1 [Example 111, N-(1-((2-aminopyridin-4-yl)methyl)-1H-pyrazol-4-yl)-6,6-dimethyl-4,5,6,7-tetrahydro-1H-indazole-3-carboxamide] | 8 nM
10 | CC1(C)CCc2c(C(=O)Nc3cnn(Cc4cccnc4N)c3)n[nH]c2C1 [Example 112, N-(1-((2-aminopyridin-3-yl)methyl)-1H-pyrazol-4-yl)-6,6-dimethyl-4,5,6,7-tetrahydro-1H-indazole-3-carboxamide] | 6 nM
11 | CN(CCC(c1ccccc1)n1cc(NC(=O)c2n[nH]c3c2CCC(C)(C)C3)cn1)S(C)(=O)=O (stereo not shown) [Example 122, 6,6-dimethyl-N-(1-(3-(N-methylmethylsulfonamido)-1-phenylpropyl)-1H-pyrazol-4-yl)-4,5,6,7-tetrahydro-1H-indazole-3-carboxamide] | 4 nM
12 | CN1CCC2(CCc3c(C(=O)Nc4cnn(Cc5ccccc5)c4)n[nH]c3C2)C1=O (stereo not shown) [Example 123b, N-(1-benzyl-1H-pyrazol-4-yl)-1′-methyl-2′-oxo-1,4,5,7-tetrahydrospiro[indazole-6,3′-pyrrolidine]-3-carboxamide] | 4000 nM
13 | CC1(C)CCc2c(C(=O)Nc3cnn(C(c4ccccc4)C4CS(=O)(=O)CCN4)c3)n[nH]c2C1 (stereo not shown) [Example 128a, N-(1-((1,1-dioxidothiomorpholin-3-yl)(phenyl)methyl)-1H-pyrazol-4-yl)-6,6-dimethyl-4,5,6,7-tetrahydro-1H-indazole-3-carboxamide] | 42 nM
14 | CC12Cc3[nH]nc(C(=O)Nc4cnn(C(c5ccccc5)C5CCS(=O)(=O)CC5)c4)c3CC1C2(F)F (stereo not shown) [Example 141, N-(1-((1,1-dioxidotetrahydro-2H-thiopyran-4-yl)(phenyl)methyl)-1H-pyrazol-4-yl)-5,5-difluoro-5a-methyl-1,4,4a,5,5a,6-hexahydrocyclopropa[f]indazole-3-carboxamide] | < 0.1 nM

Further lines, results first:

Row | Ki | SMILES
15 | 240 nM | O=C(Nc1cnn(Cc2ccccc2)c1)c1n[nH]c2c1CC1(CC2)COC1 [Example 13, N-(1-benzyl-1H-pyrazol-4-yl)-1,4,6,7-tetrahydrospiro[indazole-5,3′-oxetane]-3-carboxamide]
16 | 36 nM | O=C(Nc1cnn(Cc2ccccc2)c1)c1n[nH]c2c1CC(F)(F)CC2 [Example 17, N-(1-benzyl-1H-pyrazol-4-yl)-5,5-difluoro-4,5,6,7-tetrahydro-1H-indazole-3-carboxamide]
17 | 860 nM | CC1(O)CCc2c(C(=O)Nc3cnn(Cc4ccccc4)c3)n[nH]c2C1 (stereo not shown) [Example 51b, N-(1-benzyl-1H-pyrazol-4-yl)-6-hydroxy-6-methyl-4,5,6,7-tetrahydro-1H-indazole-3-carboxamide]
18 | 4000 nM | CC1(C)Cc2[nH]nc(C(=O)Nc3cnn(Cc4ccccc4)c3)c2CCO1 [Example 71a, N-(1-benzyl-1H-pyrazol-4-yl)-7,7-dimethyl-4,5,7,8-tetrahydro-1H-oxepino[4,5-c]pyrazole-3-carboxamide]
19 | 790 nM | CC1(C)Cc2c(C(=O)Nc3cnn(Cc4ccccc4)c3)n[nH]c2CCO1 [Example 71b, N-(1-benzyl-1H-pyrazol-4-yl)-5,5-dimethyl-4,5,7,8-tetrahydro-1H-oxepino[4,5-c]pyrazole-3-carboxamide]
20 | 61 nM | O=C(Nc1cnn(Cc2ccccc2)c1)c1n[nH]c2c1CC1(COC1)C2 [Example 82, N-(1-benzyl-1H-pyrazol-4-yl)-4,6-dihydro-1H-spiro[cyclopenta[c]pyrazole-5,3′-oxetane]-3-c arboxamide]
21 | 34 nM | O=C(Nc1cnn(Cc2ccccc2)c1)c1n[nH]c2c1CCC1(CSC1)C2 [Example 118, N-(1-benzyl-1H-pyrazol-4-yl)-1,4,5,7-tetrahydrospiro[indazole-6,3′-thietane]-3-carboxamide]
22 | 140 nM | O=C(Nc1cnn(Cc2ccccc2)c1)c1n[nH]c2c1CCCCC2 [Example 124, N-(1-benzyl-1H-pyrazol-4-yl)-1,4,5,6,7,8-hexahydrocyclohepta[c]pyrazole-3-carboxamide]
